Experiments:
TNF-α = test: Inhibition of TNF-α production in a mouse model; assay type: in vivo
Excerpt: The test methods were as described in WO 03/080049; Muller et al., J. Med. Chem., 1996, 39:3238; and Muller et al., Bioorg. Med. Chem. Lett., 1999, 9:1625-30.

PDE1 = PDE1 enzyme assay; assay type: biochemical; conditions: at 10 μM
Procedure: PDE1, 2, 3 and 5 enzyme assays were prepared as described by Hidaka and Asano. Biochem. Biophys. Acta., 1976, 429:485; see also Nicholsen et al., Trends Pharmaco. Sci., 1991, 12:19. The PDE6 enzyme assay was prepared according to Baehr et al., J. Biol. Chem., 1979, 254:11669 and Gillespie et al., Mol. Pharm., 1989, 36: 773. The PDE7 enzyme assay was prepared according to Bloom and Beavo. Proc. Natl. Acad. Sci. USA, 1996, 93:14188-92.

[1] = system: Aspartate Aminotransferase; test: AST levels in PSOR-008 and PSOR-009 (plaque psoriasis); assay type: in vivo, human; conditions: for AST High, % of patients / AST Low, % of patients / AST Normal, % of patients: Week 16, 30 mg BID
Procedure: Apremilast was studied in Phase 3 trials in patients with moderate to severe plaque psoriasis. […] The improvement in mild baseline liver function test abnormalities has been observed with apremilast daily use without any prescribed changes in physical activity, social or dietary habits. During the course of the study, there was observed a higher proportion of subjects in the apremilast treatment group (30 mg BID) with normal LFTs (i.e. normal levels of ALT and AST) at subsequent placebo-controlled study visits at week 16. See Tables 11 to 16 from PSOR-008 and PSOR-009 studies.

Alanine Aminotransferase [2] = test: ALT levels in PALACE 1, 2, and 3 clinical studies; assay type: in vivo, human
Excerpt: Apremilast was studied in Phase 3 trials in both psoriatic arthritis and psoriasis patient populations and a Phase 2 trial in rheumatoid arthritis patients on background methotrexate. […] The improvement in mild baseline liver function test abnormalities has been observed with apremilast daily use without any prescribed changes in physical activity, social or dietary habits. The majority of the patient populations in both the psoriatic arthritis and psoriasis studies were overweight with the mean BMI for subjects greater than or equal to 30, more than half were consuming alcoholic beverages regularly, approximately 60% were taking methotrexate at an average dose of […], and 70% were using non-steroidal anti-inflammatory drugs (NSAIDs). […] During the course of the study, there was observed a higher proportion of subjects in the apremilast treatment groups (both 20 mg BID and 30 mg BID) with normal LFTs (i.e. normal levels of ALT and AST) at subsequent placebo-controlled study visits at week 4, week 16, and week 24 (See Tables 1 to 10 from PALACE 1, 2, and 3 studies).

Alanine Aminotransferase [3] = test: ALT levels in PSA-005 (psoriatic arthritis); assay type: in vivo, human; conditions: for ALT High to Normal, percent of patients / ALT Net Benefit / ALT Normal to High, percent of patients: end of treatment (week 24)
Excerpt: Apremilast was studied in a Phase 3 trial in patients with active psoriatic arthritis who have not been previously treated with disease-modifying antirheumatic drugs. […] The improvement in mild baseline liver function test abnormalities has been observed with apremilast daily use without any prescribed changes in physical activity, social or dietary habits. […] See Tables 25 to 34 from PSA-005 studies.

[4] = 30 BID, end of treatment (week 16)
[5] = Baseline High, Week 24, 20 mg BID
[6] = Baseline High, Week 24, 30 mg BID
[7] = Baseline Normal, Week 24, 20 mg BID
[8] = Baseline Normal, Week 24, 30 mg BID
[9] = Baseline Total, Week 24, 20 mg BID
[10] = Baseline Total, Week 24, 30 mg BID

## CCOc1cc([C@@H](CS(C)(=O)=O)N2C(=O)c3cccc(NC(C)=O)c3C2=O)ccc1OC [Apremilast, (+)-2-[1-(3-ethoxy-4-methoxyphenyl)-2-methylsulfonylethyl]-4-acetylaminoisoindoline-1,3-dione]
TNF-α
  EC50, TNF-α production: 0.05 mg/kg
PDE1
  % inhibition PDE1: 23%
[1]; [4]
  AST High to Normal, percent of patients: 60.3%
  AST Net Benefit: 46.3%
  AST Normal to High, percent of patients: 2.8%
[1]; 30 BID, week 16
  AST High to Normal, Difference (APR 30 BID vs Placebo): 17.9%
  AST Net Benefit, Difference (APR 30 BID vs Placebo): 12.2%
  AST Normal to High, Difference (APR 30 BID vs Placebo): 0.3%
[1]; 30 BID, week 16, listed as APR
  AST High to Normal, Difference (APR 30 BID vs Placebo): 17.9%
[1]; Baseline High
  AST High, % of patients: 39.7%
  AST Low, % of patients: 0.0%
  AST Normal, % of patients: 60.3%
[1]; Baseline Normal
  AST High, % of patients: 2.8%
  AST Low, % of patients: 0.0%
  AST Normal, % of patients: 97.2%
[1]; Baseline Total
  AST High, % of patients: 5.9%
  AST Low, % of patients: 0.0%
  AST Normal, % of patients: 94.1%
Alanine Aminotransferase [2]; 20 BID, end of treatment
  ALT High to Normal, percent of patients: 55.3%
  ALT Net Benefit: 40.6%
  ALT Normal to High, percent of patients: 4.5%
Alanine Aminotransferase [2]; 30 BID, end of treatment
  ALT High to Normal, Difference between Placebo and APR 30 BID: 44.4%
  ALT High to Normal, percent of patients: 74.4%
  ALT Net Benefit: 51.8%
  ALT Net Benefit, Difference between Placebo and APR 30 BID: 36.8%
  ALT Normal to High, Difference between Placebo and APR 30 BID: −2.8%
  ALT Normal to High, percent of patients: 4.4%
Alanine Aminotransferase [2]; [5]
  ALT High, % of patients: 44.7%
  ALT Low, % of patients: 0.0%
  ALT Normal, % of patients: 55.3%
Alanine Aminotransferase [2]; [6]
  ALT High, % of patients: 25.6%
  ALT Low, % of patients: 0.0%
  ALT Normal, % of patients: 74.4%
Alanine Aminotransferase [2]; [7]
  ALT High, % of patients: 4.5%
  ALT Low, % of patients: 0.0%
  ALT Normal, % of patients: 95.5%
Alanine Aminotransferase [2]; [8]
  ALT High, % of patients: 4.4%
  ALT Low, % of patients: 0.0%
  ALT Normal, % of patients: 95.6%
Alanine Aminotransferase [2]; [9]
  ALT High, % of patients: 8.9%
  ALT Low, % of patients: 0.0%
  ALT Normal, % of patients: 91.1%
Alanine Aminotransferase [2]; [10]
  ALT High, % of patients: 6.3%
  ALT Low, % of patients: 0.0%
  ALT Normal, % of patients: 93.7%
Alanine Aminotransferase [2]; Week 4, 20 mg BID
  Baseline High ALT: High %: 54.2%
  Baseline High ALT: Normal %: 45.8%
  Baseline High ALT: Normal % difference from Placebo: 8.7%
Alanine Aminotransferase [2]; Week 4, 30 mg BID
  Baseline High ALT: High %: 41.1%
  Baseline High ALT: Normal %: 58.9%
  Baseline High ALT: Normal % difference from Placebo: 21.8%
Alanine Aminotransferase [2]; Week 16, 20 mg BID
  Baseline High ALT: High %: 36.8%
  Baseline High ALT: Normal %: 63.2%
  Baseline High ALT: Normal % difference from Placebo: 12.4%
Alanine Aminotransferase [2]; Week 16, 30 mg BID
  Baseline High ALT: High %: 32.7%
  Baseline High ALT: Normal %: 67.3%
  Baseline High ALT: Normal % difference from Placebo: 16.5%
Alanine Aminotransferase [2]; Week 24, 20 mg BID
  Baseline High ALT: High %: 45.1%
  Baseline High ALT: Normal %: 54.9%
  Baseline High ALT: Normal % difference from Placebo: 14.9%
Alanine Aminotransferase [2]; Week 24, 30 mg BID
  Baseline High ALT: High %: 23.8%
  Baseline High ALT: Normal %: 76.2%
  Baseline High ALT: Normal % difference from Placebo: 36.2%
Alanine Aminotransferase [3]; 20 BID
  ALT High to Normal, percent of patients: 87.5%
  ALT Net Benefit: 53.8%
  ALT Normal to High, percent of patients: 3.3%
Alanine Aminotransferase [3]; 30 BID
  ALT High to Normal, percent of patients: 72.7%
  ALT Net Benefit: 44.4%
  ALT Normal to High, percent of patients: 4.9%
Alanine Aminotransferase [3]; 30 BID, week 24
  ALT High to Normal, Difference between Placebo and APR 30 BID: 22.7%
  ALT Net Benefit, Difference between Placebo and APR 30 BID: 24.4%
  ALT Normal to High, Difference between Placebo and APR 30 BID: −1.0%
Alanine Aminotransferase [3]; 30 BID, week 24, listed as APR
  ALT High to Normal, Difference between Placebo and APR 30 BID: 22.7%
Alanine Aminotransferase [3]; [5]
  ALT High, % of patients: 12.5%
  ALT Low, % of patients: 0.0%
  ALT Normal, % of patients: 87.5%
Alanine Aminotransferase [3]; [6]
  ALT High, % of patients: 27.3%
  ALT Low, % of patients: 0.0%
  ALT Normal, % of patients: 72.7%
Alanine Aminotransferase [3]; [7]
  ALT High, % of patients: 3.3%
  ALT Low, % of patients: 0.0%
  ALT Normal, % of patients: 96.7%
Alanine Aminotransferase [3]; [8]
  ALT High, % of patients: 4.9%
  ALT Low, % of patients: 0.0%
  ALT Normal, % of patients: 95.1%
Alanine Aminotransferase [3]; [9]
  ALT High, % of patients: 3.8%
  ALT Low, % of patients: 0.0%
  ALT Normal, % of patients: 96.2%
Alanine Aminotransferase [3]; [10]
  ALT High, % of patients: 6.5%
  ALT Low, % of patients: 0.0%
  ALT Normal, % of patients: 93.5%
Alanine Aminotransferase [3]; Week 4, 20 mg BID
  Baseline High ALT: High %: 30.0%
  Baseline High ALT: Normal %: 70.0%
Alanine Aminotransferase [3]; Week 4, 30 mg BID
  Baseline High ALT: High %: 72.7%
  Baseline High ALT: Normal %: 27.3%
Alanine Aminotransferase [3]; Week 16, 20 mg BID
  Baseline High ALT: High %: 12.5%
  Baseline High ALT: Normal %: 87.5%
Alanine Aminotransferase [3]; Week 16, 30 mg BID
  Baseline High ALT: High %: 36.4%
  Baseline High ALT: Normal %: 63.6%
Alanine Aminotransferase [3]; Week 24, 20 mg BID
  Baseline High ALT: High %: 12.5%
  Baseline High ALT: Normal %: 87.5%
Alanine Aminotransferase [3]; Week 24, 30 mg BID
  Baseline High ALT: High %: 27.3%
  Baseline High ALT: Normal %: 72.7%

Reference: US10300042B2, “Apremilast for the treatment of a liver disease or a liver function abnormality” (Celgene Corporation, priority 2014, dated 2019)
